PMC6175634 (Molecular genetics and metabolism, 2018)

Target: T1, sulfamidase (wild-type mouse DBS) (Mus musculus, UniProt Q9EQ08)
T1 sequence (Q9EQ08 23-502): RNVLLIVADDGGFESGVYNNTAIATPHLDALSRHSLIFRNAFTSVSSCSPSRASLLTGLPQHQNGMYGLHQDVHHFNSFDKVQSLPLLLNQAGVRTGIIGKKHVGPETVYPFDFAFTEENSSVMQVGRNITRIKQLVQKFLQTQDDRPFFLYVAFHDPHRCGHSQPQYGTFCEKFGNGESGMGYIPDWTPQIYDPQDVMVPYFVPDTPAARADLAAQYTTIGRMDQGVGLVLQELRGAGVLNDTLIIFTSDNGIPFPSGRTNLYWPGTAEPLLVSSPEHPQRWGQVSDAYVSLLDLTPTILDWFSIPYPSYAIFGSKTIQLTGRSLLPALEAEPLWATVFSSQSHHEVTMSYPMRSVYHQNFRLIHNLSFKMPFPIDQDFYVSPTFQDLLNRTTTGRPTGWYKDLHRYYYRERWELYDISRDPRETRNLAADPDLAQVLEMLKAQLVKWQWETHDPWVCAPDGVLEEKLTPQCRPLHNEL
Experiment: LC-MS/MS product formation in dried blood spot, knockout mouse control
Format: biochemical
Details: 1 mM substrate, otherwise same

Structure (SMILES): O=S(=O)(O)N[C@H]1[C@@H](Oc2ccc3ccccc3c2)O[C@H](CO)[C@@H](O)[C@@H]1O [MPS-IIIA-S, 2-sulfamate-2-deoxy-1-α-(2-naphthyl)-glucopyranoside]
- LC-MS/MS product formation in dried blood spot, knockout mouse control: sulfamidase activity was readily detected in a DBS made using blood from a wild-type mouse
